# Counter-ions that a name gives are not always drawn.
# Tests used:
# α2-adrenoceptors = tested on: α2-adrenoceptors; set-up: species or system rat
# [1] = tested on: bisected rat prostatic vas deferens
compound,measurement,setting,value
"NC[C@H](O)c1ccc(O)c(O)c1 [noradrenaline, (−)-noradrenaline bitartrate]",−log IC50 of noradrenaline for inhibition of the response to electrical stimulation,α2-adrenoceptors,5.96±0.052
"COc1cc2nc(N3CCN(C(=O)c4ccco4)CC3)nc(N)c2cc1OC [prazosin, prazosin hydrochloride]",effect on second phase of the contraction,[1],inhibited
Cc1ccc(C(=O)Nc2ccc(S(=O)(=O)O)c3cc(S(=O)(=O)O)cc(S(=O)(=O)O)c23)cc1NC(=O)c1cccc(NC(=O)Nc2cccc(C(=O)Nc3cc(C(=O)Nc4ccc(S(=O)(=O)O)c5cc(S(=O)(=O)O)cc(S(=O)(=O)O)c45)ccc3C)c2)c1 [suramin],effect on initial phase of the contraction,[1]; 0.3 mM,sensitive
NC1=N[C@H](O)[C@H]2[C@H]3O[C@]4(O)O[C@@H]([C@@H](O)[C@@]2(N1)[C@@H]4O)[C@]3(O)CO [tetrodotoxin],effect on contractions evoked by field stimulation,[1],abolished
CCLIPACRRNHKKFC [truncated ρ-TIA],selective β1-adrenoceptor antagonist activity,β1-adrenoceptor,inactive

# From patent publication US6849601B1 (priority 1998, dated 2005)
